{
  "source": "patent US20120238532A1",
  "about": "“TREATMENT OF HUMAN OSTEOSARCOMA” (CEDARS-SINAI MEDICAL CENTER, priority 2009, published 2012)",
  "key": {"MG-63 cells [1]": {"tested_on": "MG-63 cells", "assay": "Cell cycle analysis (PI, FACS), MG-63", "format": "cell-based, human", "description": "Cells were harvested and fixed with 70% ethanol at regular time intervals. Fixed cells were stained with propidium iodide (PI) for flow cytometry analysis using BD FACScan (BD Biosciences, San Jose, Calif.). Distribution of cell cycle was analyzed by ModFit LT V2.0 software (Verity Software House, Topsham, Me.). […] After 24, 48, and 72 hours of exposure, cells were harvested and stained with PI and fluorescein isothiocyanate (FITC) using Annexin V-FITC apoptosis detection kit (BD Biosciences) according to the manufacturer's protocol. Cells were subjected to flow cytometry analysis within one hour of staining."}, "MG-63 cells [2]": {"tested_on": "MG-63 cells", "assay": "Morphological changes (crystal violet staining), MG-63", "format": "cell-based, human", "description": "FIG. 2. (A) Graphical representation of the effect of CuB on MG-63 and SAOS-2 cells. Cells were exposed to CuB at their ED50 (70 nM for MG-63 and 50 nM for SAOS-2 cells). Time-dependent antiproliferative activity of CuB on MG-63 and SAOS-2 cells measured by pulse-exposure experiments. Cells were exposed to CuB for 2, 9, or 20 hours, washed extensively, and cultured in the absence of CuB for an additional 24, 48, and 72 hours. Cell growth was measured by MTT assay. Measurements were repeated in triplicates. Data represent mean±SD. Asterisks (**) represent p<0.001 vs DMSO control by t-test. (B) Morphological changes of MG-63 and SAOS-2 cells after exposure to cucurbitacin B. Cells with normal morphology (top) were compared to rounded cells (middle) and multinucleated cells (bottom). […] Representative cells are shown. 400×; scale bar=50 μm. (C) Graphical representation of G2/M cell cycle arrest after 20 hours of exposure to cucurbitacin B. Cells were stained with propidium iodide (PI) and analyzed by FACS. (D) Graphical representation of apoptosis after 72 hours of exposure to cucurbitacin B. Cells were stained with PI and Annexin V-FITC, and analyzed by FACS."}, "S6K and 4EBP1": {"tested_on": "S6K and 4EBP1", "assay": "Western blotting, downstream targets of mTOR", "format": "cell-based, human", "details": "MG-63 and SAOS-2 cells", "description": "Changes in protein level by CuB were checked by Western blotting. […] After 2, 9, and 20 hours of exposure, cells were harvested and immediately lysed with RIPA buffer (Millipore—Upstate, Temecula, Calif.) supplemented with protease inhibitor cocktail (Roche, San Francisco, Calif.), 0.5 mM PMSF (Roche), and 50 mM NaF (Sigma). After 20 minutes of incubation on ice, protein concentrations were measured by Bradford assay with Bio Rad protein assay solution (Bio-Rad, Hercules, Calif.) and samples were adjusted to the same protein concentration. Samples were mixed with 2× Laemmli sample buffer (Bio-Rad) with 5% β-mercaptoethanol (Sigma) and incubated at 95° C. for 10 min to denature the protein. After brief incubation on ice, proteins were separated by SDS-PAGE, transferred to nitrocellulose membrane (Sigma), and blotted with antibodies from either Cell Signaling Technology (Danvers, Mass.) or Santa Cruz Biotechnology (Santa Cruz, Calif.). Target proteins were visualized by Supersignal West Dura Substrate (Thermo-Pierce, Rockford, Ill.). GAPDH protein was used as a loading control."}, "MG-63 xenografts": {"tested_on": "MG-63 xenografts", "assay": "Growth of MG-63 xenografts in athymic nude mice", "format": "in vivo", "description": "All animal experiments strictly followed the guidelines of Cedars-Sinai Medical Center and the National Institute of Health (NIH). Female nu/nu athymic nude mice (5-6 weeks old; average weight 21 g; specific pathogen-free) from Harlan Laboratories (Indianapolis, Ind.) were maintained in pathogen-free condition with sterilized chow and water. 5×10^6 cells of MG-63 cells were mixed with 200 μl of Matrigel solution (BD Biosciences) per injection, and the mixture was injected subcutaneously on the upper flanks of nude mice. After 24 hours, tumor size was measured, and any outliers were ruled out by one-way analysis of variance (ANOVA) test. […] The conversion was made using dose translation formula by Reagan-Shaw et al., (15). […] Body weights were monitored every 2 days. Tumor size was measured every 2 days, and the tumor volume was calculated using the following formula: A (length)×B (width)×C (height)×0.5236 (16). The experiment was stopped at day 35, and all mice were sacrificed. The presence of metastatic spread was examined macroscopically at the time of autopsy followed by histological examination. At least two tumors from each group were snap-frozen in liquid nitrogen for Western blotting."}, "[3]": {"tested_on": "clonogenic hematopoietic cells", "assay": "Colony-forming cell (CFC) assays of bone marrow", "details": "day 35, 2 × 10^4 cells/well", "method": "Whole blood samples were obtained by submandibular bleeding and serum samples were harvested with serum separator tubes (BD Biosciences). Blood count and serum chemistry results were obtained by the Hemagen Analyst Benchtop Chemistry System (Hemagen Diagnostics, Inc. Columbia, Md.). Colony-forming cell (CFC) assays were performed as previously described (18)."}, "mTOR": {"molecular_target": "mTOR (Homo sapiens, UniProt P42345)", "assay": "DARTS analysis, mTOR", "format": "binding", "design": "endogenous in cells; host or cells: MG-63 whole-cell lysate", "details": "MG-63 whole-cell lysates; 10, 100, or 1000 nM, 30 min", "description": "Direct interaction of CuB and mTOR was assessed by DARTS as described in the original article with some modifications (14). Briefly, confluent MG-63 cells were harvested and lysed with lysis buffer (1% Triton X-100, 150 mM NaCl. 100 mM Tris-HCl, pH 7.4, 1 mM EDTA, and 1 mM EGTA, pH 8.0) supplemented with protease inhibitor (Roche, San Francisco, Calif.), 0.2 mM PMSF (Roche), and 0.2 mM Na3VO4 (Sigma). Cell lysates were incubated with 0.1 volume of increasing concentrations (10-1000 nM) of either DMSO or CuB at room temperature for 30 min. Lysates were then proteolyzed with thermolysin (Sigma) at room temperature for 3 min. Reaction was stopped by adding 0.5 M EDTA solution and 2× Laemmli sample buffer (Bio-Rad, Hercules, Calif.) with 5% β-mercaptoethanol (Sigma). Western blotting was performed as described below."}},
  "data": [
    {"smiles": "CC(=O)OC(C)(C)/C=C/C(=O)[C@](C)(O)[C@H]1[C@H](O)C[C@@]2(C)[C@@H]3CC=C4[C@H](C[C@H](O)C(=O)C4(C)C)[C@]3(C)C(=O)C[C@]12C", "note": "[CuB, cucurbitacin B]", "values": [
      {"measurement": "increase of G2/M phase", "setting": "MG-63 cells [1]; 20 hours of exposure", "result": "around 3 fold"},
      {"measurement": "G2/M phase", "setting": "MG-63 cells [1]; 20 hours of exposure at ED50 (control 27%)", "result": 76, "unit": "%"},
      {"measurement": "morphological changes", "setting": "MG-63 cells [2]; 2 hour exposure", "result": "Rapid loss of pseudopodia and rounding"},
      {"measurement": "morphological changes", "setting": "MG-63 cells [2]; 9 hour-exposure", "result": "multinuclearity which was not reversed by CuB removal"},
      {"measurement": "downstream targets of mTOR (S6K, 4EBP1)", "setting": "S6K and 4EBP1", "result": "Inhibition of downstream targets of mTOR such as S6K and 4EBP1"},
      {"measurement": "tumor growth inhibition", "setting": "MG-63 xenografts; HD-CuB 1.0 mg/kg alone", "result": "strong growth inhibition"},
      {"measurement": "tumor volume", "setting": "MG-63 xenografts; LD-CuB 0.5 mg/kg, single agent", "result": "allowed the tumor volume to increase slightly from its original size"},
      {"measurement": "BFU-E, number of colonies", "setting": "[3]; HD-CuB 1.0 mg/kg", "result": "8.3 ± 1.6"},
      {"measurement": "CFU-GEMM, number of colonies", "setting": "[3]; HD-CuB 1.0 mg/kg", "result": "3.8 ± 0.8"},
      {"measurement": "CFU-GM, number of colonies", "setting": "[3]; HD-CuB 1.0 mg/kg", "result": "64.6 ± 4.6"},
      {"measurement": "BFU-E, number of colonies", "setting": "[3]; LD-CuB 0.5 mg/kg", "result": "9.7 ± 1.4"},
      {"measurement": "CFU-GEMM, number of colonies", "setting": "[3]; LD-CuB 0.5 mg/kg", "result": "4.2 ± 0.8"},
      {"measurement": "CFU-GM, number of colonies", "setting": "[3]; LD-CuB 0.5 mg/kg", "result": "69.8 ± 3.0"},
      {"measurement": "protection of mTOR protein from thermolysin proteolysis (DARTS)", "setting": "mTOR", "result": "dose-dependent protection of mTOR protein from thermolysin proteolysis"}
    ]}
  ]
}
